Reference: US20080194698A1, “Nmda Receptor Antagonists in the Medical Intervention of Metabolic Disorders” (priority 2005, published 2008)
Read-outs that look alike come from different tables or passages of the source.

Experiments:
[1] = Oral (maternal and offspring feeding) or neonatal s.c. administration of monosodium glutamate to Wistar rats; format: in vivo
Description: The effects of oral administration of GLU were investigated in 32 pregnant rats and their offspring up to day 90 of life, in the animal facilities of the Department of Physiology, Medical School, Universidad Complutense, Madrid, Spain. The study was conducted in accordance with the principles and procedures outlined in the NIH Guide for the Care and Use of Laboratory Animals. Pregnant Wistar rats were kept under controlled conditions of light (12 h light/12 h darkness) and temperature (21+/−2C.°), and were fed with tap water and rat chow (Panlab, Barcelona, Spain) ad libitum.
At day 14 of pregnancy, the animals were divided into four groups (n=8), and either received no extra monosodium glutamate (MSG) (control, group 1), or 2.5 g MSG (group 2) or 5 g MSG per day (group 3), up to the end of the weaning period. 2.5 g, respectively 5 g MSG accounted for some 10%, respectively 20% of dry weight of the average daily food ration. After weaning and gender separation, MSG feeding was continued in the offspring at the same concentrations. A fourth group of animals received no MSG, but their offspring was injected with MSG 4 mg/g body weight s.c., at neonatal age as described earlier (Hermanussen, (1996) loc. cit.). Due to the existence of two gender groups a total of 8 experimental groups were obtained with n=6-9 for each group of females and males. All litter was weighed at weekly intervals, and the amount of food consumed was registered daily. Offspring was sacrificed half at day 30 and the rest at day 90 of life.
Half of the animals were killed by decapitation at day 30 and the other half at the end of the observation period at day 90. Anterior pituitaries were removed, and trunk blood was collected. Serum samples and anterior pituitaries after being weighted, were kept at −80° C., for hormonal determinations by specific radioimmunoassays (RIA). Pituitary homogenates were obtained by manual glass homogenizers, and processed in saline after thawing in the moment of the measurement.
Plasma GH levels and pituitary GH content were determined by RIA as previously described.^21 Pituitary homogenates were diluted 1:5000 for determination. Reagents were kindly provided by the National Institute of Diabetes, Digestive and Kidney Diseases (NIDDK). The standard used was rat GH RP2. The sensitivity of the curve was 2 ng/ml and the intraassay coefficient of variation was 5.7%. Plasma IGF I concentrations were measured using a commercially available rat RIA kit (DSL-2900, Diagnostic Systems Laboratories, INC). The sensitivity of the assay was 20 ng/ml, and the intraassay coefficients of variation for mean serum concentrations of 323, 772 and 1604 ng/ml were 5.9%, 6.1% and 3.8%, respectively.
Values are expressed as mean +/−SEM. […] To determine differences in final weight or hormonal levels a two-way ANOVA test was performed. Differences among groups were subjected to a post-hoc comparison by using Tukey HSD for unequal N test. Statistics were executed using Statistica program. The significance level was determined to be p<0.05.

[2] = Preliminary clinical trial of memantine in obese, otherwise healthy patients; format: in vivo, human
Description: The patients experienced an initial loss of body weight of 1 to 3 kg within a 7 day period. Further weight loss is observed during the course of administration over a longer period of time, see appended FIG. 6.
FIG. 6. Percent body weight decline in seven obese and one overweight subjects (6 females, 2 males) during a two month therapeutical trial with memantine (Axura®, Merz Pharmaceuticals GmbH), 5-10 mg in the morning, and 5-20 mg late in the afternoon (Patient […] initial body weight 126.6 kg, […] initial body weight 90.6 kg, Re initial body weight 93.5 kg, Br initial body weight 122.3 kg, Ku initial body weight 111.0 kg, Ho initial body weight 77.6 kg, Sk (male) initial body weight 148.6 kg, Le (male) initial body weight 109.6 kg).
The following preliminary and limited clinical trials have been carried out in the private practice of the inventor. The trials with memantine are carried out since Feb. 2, 2005, in eight obese, but otherwise healthy patients, 6 females, and 2 males (Table 1; FIG. 6).

[3] = cited from earlier work
[4] = doses 100 to 1400 mg; seven of 13 female patients; cited from earlier work
[5] = 5 g MSG per day, day 90 of life, p<0.01

## N[C@@H](CCC(=O)O)C(=O)[O-].[Na+] [MSG, monosodium glutamate]
[1]; [5]
  food uptake: almost twofold
  water uptake: threefold
[1]; MSG feeding to the mothers maintained during weaning, p<0.01
  weight increments during weaning: subnormal
[1]; MSG injected animals, compared to controls
  appetite: did not show significantly increased appetite
[1]; compared with the GH results, day 30 and day 90 of life
  IGF-1 serum levels: Almost identical results
[1]; high MSG diet (5 g MSG per day), day 30 and day 90 of life, p<0.05
  serum GH levels: as low or even lower than those of MSG injected animals
[1]; maternal feeding with 2.5 g MSG per day, compared to controls
  birth weight of the offspring: no birth weight modification
[1]; maternal feeding with 5 g MSG per day, p<0.01
  birth weight of the offspring: severe birth weight reduction
[1]; medium MSG diet (2.5 g MSG per day) and particularly high MSG diet (5 g MSG per day)
  appetite: marked voracity
[1]; medium MSG diet (2.5 g MSG per day), day 30 of life, p<0.01
  serum GH levels: low
[1]; neonatally injected with MSG 4 mg/g body weight s.c., day 30 and day 90 of life, p<0.05
  GH plasma levels of the offspring: low

## CC12CC3CC(C)(C1)CC(N)(C3)C2 [memantine]
[2]; already at the second day of treatment
  late afternoon or evening binge-eating disorders (patient report): complete disappeared
[2]; initial treatment period
  side effects: Apart from short moments of mild dizziness at the first day, and mild constipation, there were no side effects
[2]; obese patients on memantine
  appetite (patient report): significant decrease in appetite
[2]; patient eight, 93.5 kg, BMI 32.6 before treatment, 56 days of treatment
  Weight (kg) after treatment: 91.3 kg
[2]; patient five, 90.6 kg, BMI 33.3 before treatment, 49 days of treatment
  Weight (kg) after treatment: 86.6 kg
[2]; patient four, 109.6 kg, BMI 31.7 before treatment, 54 days of treatment
  Weight (kg) after treatment: 99.4 kg
[2]; patient one, 111.0 kg, BMI 38.6 before treatment, 56 days of treatment
  Weight (kg) after treatment: 104.4 kg
[2]; patient seven, 77.6 kg, BMI 27.5 before treatment, 77 days of treatment
  Weight (kg) after treatment: 71.4 kg
[2]; patient six, 126.6 kg, BMI 43.3 before treatment, 67 days of treatment
  Weight (kg) after treatment: 111.3 kg
[2]; patient three, 122.3 kg, BMI 42.8 before treatment, 40 days of treatment
  Weight (kg) after treatment: 117.5 kg
[2]; patient two, 148.6 kg, BMI 38.3 before treatment, 25 days of treatment
  Weight (kg) after treatment: 144.8 kg

## CC1(C)O[C@@H]2[C@@H](CO[C@@]3(COS(N)(=O)=O)OC(C)(C)O[C@@H]23)O1 [topiramate]
[3]; 64 mg/d, 6 months
  weight loss: 5.0%
[3]; 96 mg, 6 months
  weight loss: 4.8%
[3]; 192 mg, 6 months
  weight loss: 6.3%
[3]; 384 mg, intention-to-treat population, 6 months, placebo 2.6%
  weight loss: 6.3%
[3]; 384-mg dose, completers
  weight loss: up to 8.5%
[4]
  weight loss: > 5 kg
